Values after ≈ are worked out from the molar mass of the structure shown. Read-outs that look alike come from different tables or passages of the source.
Experiments:
Assay in all cases: Minimum inhibitory concentration, conventional tube dilution method
Assay type in all cases: cell-based
[1] = test system: Candida albicans; conditions: read-out: Minimal Inhibitory Concentration, Cand. Alb.
Description: (§1) The activity of some of the new nitrofuryl quinoline derivatives of the present invention is exemplified in Table 1 against a gram-positive (Staph. aureus), a gram-negative (Salmonella) bacterium and a fungus (Candida albicans). Table 1 indicates the minimum inhibitory concentration of the compound under reference in mg/100 cc required in order to inhibit the growth between 1 and 6 strains of each type. The measurements have been carried out by the conventional tube dilution method at 37 degrees after 24 hours.

[2] = test system: Salmonella; conditions: read-out: Minimal Inhibitory Concentration, Salm.
Description: as §1

[3] = test system: Staph. aureus; conditions: Staphylococcus aureus, read-out: Minimal Inhibitory Concentration, Staph. aureus
Description: as §1

[4] = fungus, tube dilution, 37 degrees, 24 hours, between 1 and 6 strains, mg/100 cc, decimal comma
[5] = gram-negative, tube dilution, 37 degrees, 24 hours, between 1 and 6 strains, mg/100 cc, decimal comma
[6] = gram-positive, tube dilution, 37 degrees, 24 hours, between 1 and 6 strains, mg/100 cc, decimal comma

SMILES | MIC [1, 4] | MIC [2, 5] | MIC [3, 6] | MIC ([2]; 24 h) | MIC ([1]; 24 h) | MIC ([3]; 24 h)
CCc1cc(-c2ccc([N+](=O)[O-])o2)c2ccc(OC)cc2n1 [C2 H5 H 5NF H H OCH3 H] | 10 µg/mL (≈ 33.5 µM) | 25 µg/mL (≈ 83.8 µM) | 0.01 to 0.5 µg/mL (≈ 0.0335 to 1.68 µM) |  |  | 
CCc1cc(-c2ccc([N+](=O)[O-])o2)c2ccc(O)cc2n1 [C2 H5 H 5NF H H OH H] | 50 µg/mL (≈ 176 µM) | 5 µg/mL (≈ 17.6 µM) | 0.1 to 0.5 µg/mL (≈ 0.352 to 1.76 µM) |  |  | 
CCc1cc(-c2ccc([N+](=O)[O-])o2)c2ccc(C)cc2n1 [C2 H5 H NF H H CH3 H] | > 50 µg/mL | > 50 µg/mL | 5 µg/mL (≈ 17.7 µM) |  |  | 
CCc1cc(-c2ccc([N+](=O)[O-])o2)c2ccccc2n1 [C2 H5 H NF H H H H, 2-ethyl-4-[2'-(5'-nitrofuryl)]quinoline] | 5 µg/mL (≈ 18.6 µM) | > 50 µg/mL | 0.1 µg/mL (≈ 0.373 µM) |  |  | 
CCCc1cc(-c2ccc([N+](=O)[O-])o2)c2cc(C)ccc2n1 [C3 H7 H NF H CH3 H H] | 5 to 10 µg/mL (≈ 16.9 to 33.7 µM) |  | 1 µg/mL (≈ 3.37 µM) | > 50 µg/mL |  | 
CCCc1cc(-c2ccc([N+](=O)[O-])o2)c2ccc(C)cc2n1 [C3 H7 H NF H H CH 3 H] | > 50 µg/mL | > 50 µg/mL | 5 µg/mL (≈ 16.9 µM) |  |  | 
Cc1ccc2nc(C(Br)(Br)Br)cc(-c3ccc([N+](=O)[O-])o3)c2c1 [CBr3 H NF H CH3 H H, 2-tribromomethyl-4-[2'-(5'-nitrofuryl)]-6-methyl quinoline] | > 50 µg/mL | > 25 µg/mL | 1 µg/mL (≈ 1.98 µM) |  |  | 
O=[N+]([O-])c1ccc(-c2cc(C(Br)(Br)Br)nc3ccccc23)o1 [CBr3 H NF H H H H, 2-tribromomethyl-4-[2'-(5'-nitrofuryl)]quinoline] | 30 to 50 µg/mL (≈ 61.1 to 102 µM) | 10 µg/mL (≈ 20.4 µM) | 0.5 µg/mL (≈ 1.02 µM) |  |  | 
O=[N+]([O-])c1ccc(-c2cc(CO)nc3ccccc23)o1 [CH2 OH H NF H H H H, 2-Hydroxymethyl-4-[2'-(5'-nitrofuryl)]quinoline] | 5 µg/mL (≈ 18.5 µM) | 5 to 10 µg/mL (≈ 18.5 to 37 µM) | 0.1 µg/mL (≈ 0.37 µM) |  |  | 
Cc1cc(-c2ccc([N+](=O)[O-])o2)c2c(C)ccc(N)c2n1 [CH3 H NF CH3 H H NH2] | > 50 µg/mL | > 50 µg/mL | 5 µg/mL (≈ 17.6 µM) |  |  | 
CCc1ccc2nc(C)cc(-c3ccc([N+](=O)[O-])o3)c2c1 [CH3 H NF H C2 H5 H H, 2-methyl-4-[2'-(5'-nitrofuryl)]-6-ethyl quinoline] | 25 µg/mL (≈ 88.6 µM) | 25 µg/mL (≈ 88.6 µM) | 0.1 µg/mL (≈ 0.354 µM) |  |  | 
Cc1cc(C)c2nc(C)cc(-c3ccc([N+](=O)[O-])o3)c2c1 [CH3 H NF H CH3 H CH3, 2,6,8-trimethyl-4-[2'-(5'-nitrofuryl)]quinoline] | > 50 µg/mL | > 50 µg/mL | 0.05 to 0.1 µg/mL (≈ 0.177 to 0.354 µM) |  |  | 
Cc1ccc2nc(C)cc(-c3ccc([N+](=O)[O-])o3)c2c1 [CH3 H NF H CH3 H H, 2-methyl-4-[2'-(5'-nitrofuryl)]-6-methyl quinoline] | 5 µg/mL (≈ 18.6 µM) | 5 µg/mL (≈ 18.6 µM) | 0.1 µg/mL (≈ 0.373 µM) |  |  | 
Cc1cc(-c2ccc([N+](=O)[O-])o2)c2cc(C(=O)O)c(O)cc2n1 [CH3 H NF H COOH OH H] | > 50 µg/mL | > 50 µg/mL | 10 µg/mL (≈ 31.8 µM) |  |  | 
Cc1ccc2c(-c3ccc([N+](=O)[O-])o3)cc(C)nc2c1 [CH3 H NF H H CH3 H, 2,7-dimethyl-4-[2'-(5'-nitrofuryl)]quinoline] | 3 µg/mL (≈ 11.2 µM) | 2 to 5 µg/mL (≈ 7.46 to 18.6 µM) | 0.05 to 0.1 µg/mL (≈ 0.186 to 0.373 µM) |  |  | 
Cc1cc(-c2ccc([N+](=O)[O-])o2)c2ccc(Cl)cc2n1 [CH3 H NF H H Cl H, 2-methyl-4-[2'-(5'-nitrofuryl)]-7-chloro quinoline] | 25 µg/mL (≈ 86.6 µM) | 0.5 µg/mL (≈ 1.73 µM) | 0.1 µg/mL (≈ 0.346 µM) |  |  | 
Cc1cc(-c2ccc([N+](=O)[O-])o2)c2cccc(C)c2n1 [CH3 H NF H H H CH3, 2,8-dimethyl-4-[2'-(5'-nitrofuryl)]quinoline] | 5 µg/mL (≈ 18.6 µM) | > 50 µg/mL | 0.3 µg/mL (≈ 1.12 µM) |  |  | 
Cc1cc(-c2ccc([N+](=O)[O-])o2)c2ccccc2n1 [CH3 H NF H H H H, 2-methyl-4-[2'-(5'-nitrofuryl)] quinoline] | 5 µg/mL (≈ 19.7 µM) | 5 µg/mL (≈ 19.7 µM) | 0.1 to 1 µg/mL (≈ 0.393 to 3.93 µM) |  |  | 

SMILES | MIC [1, 4] | MIC [2, 5] | MIC [3, 6] | MIC ([2]; 24 h) | MIC ([1]; 24 h) | MIC ([3]; 24 h)
Cc1cc(-c2ccc([N+](=O)[O-])o2)c2ccc(NC(=O)C(F)(F)F)c(C)c2n1 [CH3 H NF H H NHCOCF3 CH3] | > 50 µg/mL | > 50 µg/mL | 0.5 µg/mL (≈ 1.32 µM) |  |  | 
CC(=O)Nc1ccc2c(-c3ccc([N+](=O)[O-])o3)cc(C)nc2c1C [CH3 H NF H H NHCOCH3 CH3] | > 50 µg/mL | > 50 µg/mL | 1 µg/mL (≈ 3.07 µM) |  |  | 
CCOc1ccc2c(-c3ccc([N+](=O)[O-])o3)cc(C)nc2c1 [CH3 H NF H H OC2 H5 H, 2-methyl-4-[2'-(5'-nitrofuryl)]-7-ethoxy quinoline] | 25 µg/mL (≈ 83.8 µM) | 5 µg/mL (≈ 16.8 µM) | 0.1 µg/mL (≈ 0.335 µM) |  |  | 
Cc1cc(-c2ccc([N+](=O)[O-])o2)c2ccc(O)cc2n1 [CH3 H NF H H OH H, 2-methyl-4-[2'-(5'-nitrofuryl)]-7-hydroxy quinoline] | 10 µg/mL (≈ 37 µM) | 5 µg/mL (≈ 18.5 µM) | 0.1 µg/mL (≈ 0.37 µM) |  |  | 
CCCCOc1cc2nc(C)cc(-c3ccc([N+](=O)[O-])o3)c2cc1OCCCC [CH3 H NF H OC4 H9 OC4 H9 H] | > 50 µg/mL | 10 µg/mL (≈ 25.1 µM) | 5 µg/mL (≈ 12.5 µM) |  |  | 
COc1cc2nc(C)cc(-c3ccc([N+](=O)[O-])o3)c2cc1OC [CH3 H NF H OCH3 OCH3 H] | > 50 µg/mL | 25 µg/mL (≈ 79.5 µM) | 0.5 to 1 µg/mL (≈ 1.59 to 3.18 µM) |  |  | 
Cc1cc(-c2ccc([N+](=O)[O-])o2)c2cc3ccccc3cc2n1 [CH3 H NF H drawing 6 H, 2-methyl-4-[2'-(5'-nitrofuryl)]-6,7-benzoquinoline] | > 50 µg/mL | > 10 µg/mL | 5 µg/mL (≈ 16.4 µM) |  |  | 
Cc1cc(-c2ccc([N+](=O)[O-])o2)c2c([N+](=O)[O-])ccc(C)c2n1 [CH3 H NF NO2 H H CH3] |  | > 50 µg/mL |  |  | > 50 µg/mL | 0.5 to 1 µg/mL (≈ 1.6 to 3.19 µM)
COc1ccc(OC)c2c(-c3ccc([N+](=O)[O-])o3)cc(C)nc12 [CH3 H NF OCH3 H H OCH3, 2-methyl-4-[2'-(5'-nitrofuryl)]-5,8-dimethoxy quinoline] | > 50 µg/mL | > 50 µg/mL | 50 µg/mL (≈ 159 µM) |  |  | 
COc1cc(OC)c2c(-c3ccc([N+](=O)[O-])o3)cc(C)nc2c1 [CH3 H NF OCH3 H OCH3 H] | > 50 µg/mL | > 50 µg/mL | 0.5 µg/mL (≈ 1.59 µM) |  |  | 
CC(=O)OC(OC(C)=O)c1cc(-c2ccc([N+](=O)[O-])o2)c2ccccc2n1 [CH(OAc)2 H NF H H H H] | 25 to 50 µg/mL (≈ 67.5 to 135 µM) | 5 µg/mL (≈ 13.5 µM) | 0.1 µg/mL (≈ 0.27 µM) |  |  | 
CCN(CC)C(=O)c1cc(-c2ccc([N+](=O)[O-])o2)c2ccccc2n1 [CON(C2 H5)2 H NF H H H H, 4-[2'-(5'-nitrofuryl)]quinoline-2-carboxylic acid diethylamide] | > 50 µg/mL | > 50 µg/mL | 0.5 to 1 µg/mL (≈ 1.47 to 2.95 µM) |  |  | 
Cc1ccc2c(-c3ccc([N+](=O)[O-])o3)cc(C(=O)O)nc2c1 [COOH H 5NF H H CH3 H, 2-carboxy-4-[2'-(5'-nitrofuryl)]-7-methyl quinoline] | 50 µg/mL (≈ 168 µM) | 25 µg/mL (≈ 83.8 µM) | 0.5 µg/mL (≈ 1.68 µM) |  |  | 
COc1ccc2c(-c3ccc([N+](=O)[O-])o3)cc(C(=O)O)nc2c1 [COOH H 5NF H H OCH3 H] | 50 µg/mL (≈ 159 µM) | 10 µg/mL (≈ 31.8 µM) | 0.5 µg/mL (≈ 1.59 µM) |  |  | 
O=C(O)c1cc(-c2ccc([N+](=O)[O-])o2)c2ccccc2n1 [COOH H NF H H H H, 2-carboxy-4-[2'-(5'-nitrofuryl)]quinoline] | 30 to 50 µg/mL (≈ 106 to 176 µM) | > 10 µg/mL | 1 µg/mL (≈ 3.52 µM) |  |  | 
CCOc1ccc2c(-c3ccc([N+](=O)[O-])o3)cc(C(=O)O)nc2c1 [COOH H NF H H OC2 H5 H, 2-carboxy-4-[2'-(5'-nitrofuryl)]-7-ethoxy quinoline] | > 50 µg/mL | 5 µg/mL (≈ 15.2 µM) | 0.5 µg/mL (≈ 1.52 µM) |  |  | 
O=[N+]([O-])c1ccc(-c2ccnc3ccccc23)o1 [H H NF H H H H, 4-[2'-(5'-nitrofuryl)]quinoline] | 1 µg/mL (≈ 4.16 µM) | 5 µg/mL (≈ 20.8 µM) | 0.1 to 0.5 µg/mL (≈ 0.416 to 2.08 µM) |  |  | 
Cc1cc(-c2ccc([N+](=O)[O-])o2)nc2ccccc12 [NF H CH3 H H H H, 2-[2'-(5'-nitrofuryl)]-4-methyl quinoline] | 0.5 µg/mL (≈ 1.97 µM) | 5 µg/mL (≈ 19.7 µM) | 0.2 to 0.5 µg/mL (≈ 0.787 to 1.97 µM) |  |  | 

Source: patent publication US4224448A, “2'-(5'-Nitrofuryl) substituted quinolines” (priority 1966, dated 1980)
